Counter-ions that a name gives are not always drawn.
Test system: all test organisms
Test: MIC, micro broth dilution (summary in text)
Type: cell-based
Conditions: planktonic cells, read-out: MICs ranging over all test organisms
Procedure: An assay was made using a minimum inhibitory concentration (MIC) and minimum bactericidal concentration (MBC) and minimum fungicidal concentration (MFC) determination. The MIC was determined by the micro broth dilution method in 96-well plates. […] A 10 μL containing 1×10^5 bacterial cells or 2×10^3 fungal cells were added to each well. The inoculated plates were covered with a lid, sealed with Parafilm, and incubated for 24 h at 37° C. with slight rocking on a tilting platform shaker. After incubation, the optical density at 600 nm (OD 600) of the cultures in each well was measured using an xMark™ Microplate Absorbance Spectrophotometer (Bio-Rad). The MIC was defined as the lowest concentration of antimicrobial compound at which the culture OD600 values were similar to uninoculated control wells. MBCs and MFCs were determined by transferring 100 μL from each well with no apparent growth onto appropriate agar plates, followed by incubation for 24 h at 37° C.

[H]/N=C(\N/C(=N/[H])NCCCCCCNC(=N)NC(=N)Nc1ccc(Cl)cc1)Nc1ccc(Cl)cc1 [Chlorhexidine HCl, 1,6-bis(4′-chlorophenylbiguanide) hexane]
MIC: 0.1 to 50 µg/mL

From patent US20230263757A1, “DISINFECTING WIPE KIT FOR CENTRAL VENOUS ACCESS DEVICES” (SterileCare Inc., priority 2022, published 2023)
